Assay results reported in patent publication US20140303164A1, “THERAPEUTIC COMPOUNDS” (Gilead Sciences, Inc., priority 2013, published 2014).

What was measured:
[1] = Test B: Cytotoxicity Assay; assay type: cell-based; details: human, uninfected MT-4 cells, same protocol as Test A
Procedure, shortened: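 Uninfected MT-4 cells (2000 per well) incubated with diluted compound at 37° C. for 5 days, following the antiviral protocol without HIV-IIIb.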

[2] = tested on: HIV-IIIb; test: Test A: Antiviral Assay in MT4 Cells; assay type: cell-based, HIV-1; details: Human immunodeficiency virus 1, IIIB, MT4, 120 h; for inhibition at 0.2 µM: read-out: % inhibition at 0.2 μM; for inhibition at 2 µM: read-out: % inhibition at 2 μM
Procedure: Test A: Antiviral Assay in MT4 Cells
MT-4 cells were next mixed with HIV-IIIb at an m.o.i of 0.003 for 1 hour, after which time 35 μL of virus/cell mixture (2000 cells) was immediately added to each well containing 40 μL of diluted compound. The plates were then incubated at 37° C. for 5 days. […] Cell lysis was carried out by incubating at room temperature for 10 min and then chemiluminescence was read.

Compound	CC50 at 5 days [1] [µM]	inhibition at 0.2 µM [2] [%]	inhibition at 2 µM [2] [%]
Cn1nc(NS(C)(=O)=O)c2c(Cl)ccc(-c3ccc(C#CC(C)(C)O)nc3[C@H](Cc3cc(F)cc(F)c3)NC(=O)Cn3ncc4c3C(F)(F)[C@@H]3C[C@H]43)c21 [Compound 150, N—((S)-1-(3-(4-chloro-1-methyl-3-(methylsulfonamido)-1H-indazol-7-yl)-6-(3-hydroxy-3-methylbut-1-yn-1-yl)pyridin-2-yl)-2-(3,5-difluorophenyl)ethyl)-2-((3bS,4aR)-5,5-difluoro-3b,4,4a,5-tetrahydro-1H-cyclopropa[3,4]cyclopenta[1,2-c]pyrazol-1-yl)acetamide]	28.9	87	87
Cn1nc(NS(C)(=O)=O)c2c(Cl)ccc(-c3ccc(C#CC(C)(O)CO)nc3[C@H](Cc3cc(F)cc(F)c3)NC(=O)Cn3nc(C(F)(F)F)c4c3C(F)(F)[C@@H]3C[C@H]43)c21 (stereo partly drawn) [Compound 151, N-((1S)-1-(3-(4-chloro-1-methyl-3-(methylsulfonamido)-1H-indazol-7-yl)-6-(3,4-dihydroxy-3-methylbut-1-yn-1-yl)pyridin-2-yl)-2-(3,5-difluorophenyl)ethyl)-2-((3bS,4aR)-5,5-difluoro-3-(trifluoromethyl)-3b,4,4a,5-tetrahydro-1H-cyclopropa[3,4]cyclopenta[1,2-c]pyrazol-1-yl)acetamide]	25.3	92	92
Cn1nc(NS(C)(=O)=O)c2c(Cl)ccc(-c3ccc(C#CC(C)(O)CF)nc3[C@H](Cc3cc(F)cc(F)c3)NC(=O)Cn3nc(C(F)(F)F)c4c3C(F)(F)[C@@H]3C[C@H]43)c21 (stereo partly drawn) [Compound 152, N-((1S)-1-(3-(4-chloro-1-methyl-3-(methylsulfonamido)-1H-indazol-7-yl)-6-(4-fluoro-3-hydroxy-3-methylbut-1-yn-1-yl)pyridin-2-yl)-2-(3,5-difluorophenyl)ethyl)-2-((3b-S,4aR)-5,5-difluoro-3-(trifluoromethyl)-3b,4,4a,5-tetrahydro-1H-cyclopropa[3,4]cyclopenta[1,2-c]pyrazol-1-yl)acetamide]	11.9	89	89
Cn1nc(NS(C)(=O)=O)c2c(Cl)ccc(-c3ccc(C#CCOCCO)nc3[C@H](Cc3cc(F)cc(F)c3)NC(=O)Cn3nc(C(F)(F)F)c4c3C(F)(F)[C@@H]3C[C@H]43)c21 [Compound 153, N—((S)-1-(3-(4-chloro-1-methyl-3-(methylsulfonamido)-1H-indazol-7-yl)-6-(3-(2-hydroxyethoxy)prop-1-yn-1-yl)pyridin-2-yl)-2-(3,5-difluorophenyl)ethyl)-2-((3b-S,4aR)-5,5-difluoro-3-(trifluoromethyl)-3b,4,4a,5-tetrahydro-1H-cyclopropa[3,4]cyclopenta[1,2-c]pyrazol-1-yl)acetamide]	18.6	98	98
COCC(C)(O)C#Cc1ccc(-c2ccc(Cl)c3c(NS(C)(=O)=O)nn(C)c23)c([C@H](Cc2cc(F)cc(F)c2)NC(=O)Cn2nc(C(F)(F)F)c3c2C(F)(F)[C@@H]2C[C@H]32)n1 (stereo partly drawn) [Compound 154, N-((1S)-1-(3-(4-chloro-1-methyl-3-(methylsulfonamido)-1H-indazol-7-yl)-6-(3-hydroxy-4-methoxy-3-methylbut-1-yn-1-yl)pyridin-2-yl)-2-(3,5-difluorophenyl)ethyl)-2-((3bS,4aR)-5,5-difluoro-3-(trifluoromethyl)-3b,4,4a,5-tetrahydro-1H-cyclopropa[3,4]cyclopenta[1,2-c]pyrazol-1-yl)acetamide]	12.5	97	97
Cn1nc(NS(C)(=O)=O)c2c(C(F)F)ccc(-c3ccc(C#CC(C)(C)O)nc3[C@H](Cc3cc(F)cc(F)c3)NC(=O)Cn3nc(C(F)F)c4c3C(F)(F)[C@@H]3C[C@H]43)c21 [Compound 155I, N—((S)-1-(3-(4-(difluoromethyl)-1-methyl-3-(methylsulfonamido)-1H-indazol-7-yl)-6-(3-hydroxy-3-methylbut-1-yn-1-yl)pyridin-2-yl)-2-(3,5-difluorophenyl)ethyl)-2-((3b-S,4aR)-3-(difluoromethyl)-5,5-difluoro-3b,4,4a,5-tetrahydro-1H-cyclopropa[3,4]cyclopenta[1,2-c]pyrazol-1-yl)acetamide]	26.8	99	99
Cn1nc(NS(C)(=O)=O)c2c(Cl)ccc(-c3ccc(C#CC(C)(C)O)nc3[C@H](Cc3cc(F)cc(F)c3)NC(=O)Cn3nc(C4(O)CC4)c4c3CCCC4)c21 [Compound 156E, (S)—N-(1-(3-(4 chloro-1-methyl-3-(methylsulfonamido)-1H-indazol-7-yl)-6-(3-hydroxy-3-methylbut-1-yn-1-yl)pyridin-2-yl)-2-(3,5-difluorophenyl)ethyl)-2-(3-(1-hydroxycyclopropyl)-4,5,6,7-tetrahydro-1H-indazol-1-yl)acetamide]	25.6	78	78
Cn1nc(NS(C)(=O)=O)c2c(Cl)ccc(-c3ccc(C#CC(C)(O)C(F)F)nc3[C@H](Cc3cc(F)cc(F)c3)NC(=O)Cn3nc(C(F)(F)F)c4c3C(F)(F)[C@@H]3C[C@H]43)c21 (stereo partly drawn) [Compound 157G, N-((1S)-1-(3-(4-chloro-1-methyl-3-(methylsulfonamido)-1H-indazol-7-yl)-6-(4,4-difluoro-3-hydroxy-3-methylbut-1-yn-1-yl)pyridin-2-yl)-2-(3,5-difluorophenyl)ethyl)-2-((3b-S,4aR)-5,5-difluoro-3-(trifluoromethyl)-3b,4,4a,5-tetrahydro-1H-cyclopropa[3,4]cyclopenta[1,2-c]pyrazol-1-yl)acetamide]	10.9	87	87
CCOC(=O)c1nn(CC(=O)N[C@@H](Cc2cc(F)cc(F)c2)c2nc(C#CC(C)(C)O)ccc2-c2ccc(Cl)c3c(NS(C)(=O)=O)nn(C)c23)c2c1[C@H]1C[C@H]1C2(F)F [Compound 158G, (3bS,4aR)-ethyl 1-(2-(((S)-1-(3-(4-chloro-1-methyl-3-(methylsulfonamido)-1H-indazol-7-yl)-6-(3-hydroxy-3-methylbut-1-yn-1-yl)pyridin-2-yl)-2-(3,5-difluorophenyl)ethyl)amino)-2-oxoethyl)-5,5-difluoro-3b,4,4a,5-tetrahydro-1H-cyclopropa[3,4]cyclopenta[1,2-c]pyrazole-3-carboxylate]	26.7	71	71
Cn1nc(NS(C)(=O)=O)c2c(Cl)ccc(-c3ccc(C#CC(C)(C)O)nc3[C@H](Cc3cc(F)cc(F)c3)NC(=O)Cn3nc(C#N)c4c3C(F)(F)[C@@H]3C[C@H]43)c21 [Compound 159, N—((S)-1-(3-(4-chloro-1-methyl-3-(methylsulfonamido)-1H-indazol-7-yl)-6-(3-hydroxy-3-methylbut-1-yn-1-yl)pyridin-2-yl)-2-(3,5-difluorophenyl)ethyl)-2-((3bS,4aR)-3-cyano-5,5-difluoro-3b,4,4a,5-tetrahydro-1H-cyclopropa[3,4]cyclopenta[1,2-c]pyrazol-1-yl)acetamide]	27.4	95	95
Cn1nc(NS(C)(=O)=O)c2c(Cl)ccc(-c3ccc(C#CC(C)(C)O)nc3[C@H](Cc3cc(F)cc(F)c3)NC(=O)Cn3nc(I)c4c3C(F)(F)[C@@H]3C[C@H]43)c21 [Compound 160, N—((S)-1-(3-(4-chloro-1-methyl-3-(methylsulfonamido)-1H-indazol-7-yl)-6-(3-hydroxy-3-methylbut-1-yn-1-yl)pyridin-2-yl)-2-(3,5-difluorophenyl)ethyl)-2-((3bS,4aR)-5,5-difluoro-3-iodo-3b,4,4a,5-tetrahydro-1H-cyclopropa[3,4]cyclopenta[1,2-c]pyrazol-1-yl)acetamide]	20.5	100	100
CN(C)c1nn(CC(=O)N[C@@H](Cc2cc(F)cc(F)c2)c2nc(C#CC(C)(C)O)ccc2-c2ccc(Cl)c3c(NS(C)(=O)=O)nn(C)c23)c2c1[C@H]1C[C@H]1C2(F)F [Compound 161, N—((S)-1-(3-(4-chloro-1-methyl-3-(methylsulfonamido)-1H-indazol-7-yl)-6-(3-hydroxy-3-methylbut-1-yn-1-yl)pyridin-2-yl)-2-(3,5-difluorophenyl)ethyl)-2-((3b-S,4aR)-3-(dimethylamino)-5,5-difluoro-3b,4,4a,5-tetrahydro-1H-cyclopropa[3,4]cyclopenta[1,2-c]pyrazol-1-yl)acetamide]	21.8	84	84
COC(=O)Nc1nn(CC(=O)N[C@@H](Cc2cc(F)cc(F)c2)c2nc(C#CC(C)(C)O)ccc2-c2ccc(Cl)c3c(NS(C)(=O)=O)nn(C)c23)c2c1[C@H]1C[C@H]1C2(F)F [Compound 162, methyl ((3bS,4aR)-1-(2-(((S)-1-(3-(4-chloro-1-methyl-3-(methylsulfonamido)-1H-indazol-7-yl)-6-(3-hydroxy-3-methylbut-1-yn-1-yl)pyridin-2-yl)-2-(3,5-difluorophenyl)ethyl)amino)-2-oxoethyl)-5,5-difluoro-3b,4,4a,5-tetrahydro-1H-cyclopropa[3,4]cyclopenta[1,2-c]pyrazol-3-yl)carbamate]	22.4	81	81
